Assay results from PubChem BioAssay (NCI).
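Assay format: 96-well plates, 48-hour exposure. GI50 = concentration required for 50% inhibition of growth. TGI: concentration producing complete growth inhibition.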

How the values were obtained:
Experiment in all cases: inhibition of tumour cell growth, NCI panel, 48 h
UACC-257 melanoma = test system: UACC-257 melanoma
SK-OV-3 ovarian = test system: SK-OV-3 ovarian
EKVX NSCLC = test system: EKVX NSCLC
SN12C renal = test system: SN12C renal
HOP-62 NSCLC = test system: HOP-62 NSCLC
SR leukemia = test system: SR leukemia
ACHN renal = test system: ACHN renal
TK-10 renal = test system: TK-10 renal
XF 498 CNS = test system: XF 498 CNS
OVCAR-4 ovarian = test system: OVCAR-4 ovarian
DMS 273 small cell lung = test system: DMS 273 small cell lung
A549 NSCLC = test system: A549 NSCLC
RXF-631 renal = test system: RXF-631 renal
NCI-H460 lung = test system: NCI-H460 lung
LOX IMVI melanoma = test system: LOX IMVI melanoma
M19-MEL melanoma = test system: M19-MEL melanoma
CAKI-1 renal = test system: CAKI-1 renal
A498 renal = test system: A498 renal
SK-MEL-5 melanoma = test system: SK-MEL-5 melanoma
HOP-92 NSCLC = test system: HOP-92 NSCLC
HCT-15 colon = test system: HCT-15 colon
CCRF-CEM leukemia = test system: CCRF-CEM leukemia
NCI-H23 lung = test system: NCI-H23 lung
OVCAR-5 ovarian = test system: OVCAR-5 ovarian
IGROV1 ovarian = test system: IGROV1 ovarian
SK-MEL-28 melanoma = test system: SK-MEL-28 melanoma
HT29 colon = test system: HT29 colon
SNB-78 CNS = test system: SNB-78 CNS
786-0 renal = test system: 786-0 renal
HL-60(TB) leukemia = test system: HL-60(TB) leukemia
U251 CNS = test system: U251 CNS
RPMI-8226 leukemia = test system: RPMI-8226 leukemia
DLD-1 colon = test system: DLD-1 colon
OVCAR-3 ovarian = test system: OVCAR-3 ovarian
DMS 114 small cell lung = test system: DMS 114 small cell lung
K-562 leukemia = test system: K-562 leukemia
KM12 colon = test system: KM12 colon
SW-620 colon = test system: SW-620 colon
OVCAR-8 ovarian = test system: OVCAR-8 ovarian
UO-31 renal = test system: UO-31 renal
MOLT-4 leukemia = test system: MOLT-4 leukemia
HCT-116 colon = test system: HCT-116 colon
NCI-H226 lung = test system: NCI-H226 lung
COLO 205 colon = test system: COLO 205 colon
MALME-3M melanoma = test system: MALME-3M melanoma
UACC-62 melanoma = test system: UACC-62 melanoma
SNB-75 CNS = test system: SNB-75 CNS
SNB-19 CNS = test system: SNB-19 CNS
M14 melanoma = test system: M14 melanoma
SF-295 CNS = test system: SF-295 CNS
RXF 393 renal = test system: RXF 393 renal
HCC-2998 colon = test system: HCC-2998 colon
KM20L2 colon = test system: KM20L2 colon
NCI-H522 lung = test system: NCI-H522 lung
LXFL 529 NSCLC = test system: LXFL 529 NSCLC
SF-539 CNS = test system: SF-539 CNS
SK-MEL-2 melanoma = test system: SK-MEL-2 melanoma

SMILES: CCC[CH2][Sn]1([CH2]CCC)[O]C(=O)c2cccnc2[O]1
- GI50 (UACC-257 melanoma): 1550 nM
- TGI (UACC-257 melanoma): 5.04 µM
- GI50 (SK-OV-3 ovarian): 10 µM
- TGI (SK-OV-3 ovarian): 22.1 µM
- GI50 (EKVX NSCLC): 2540 nM
- TGI (EKVX NSCLC): 8.04 µM
- GI50 (SN12C renal): 2580 nM
- TGI (SN12C renal): 8.79 µM
- GI50 (HOP-62 NSCLC): 3.95 µM
- TGI (HOP-62 NSCLC): 20.9 µM
- GI50 (SR leukemia): 1650 nM
- TGI (SR leukemia): 6.19 µM
- GI50 (ACHN renal): 2140 nM
- TGI (ACHN renal): 5.21 µM
- GI50 (TK-10 renal): 2730 nM
- TGI (TK-10 renal): 8.23 µM
- GI50 (XF 498 CNS): 1380 nM
- TGI (XF 498 CNS): 2920 nM
- GI50 (OVCAR-4 ovarian): 1650 nM
- TGI (OVCAR-4 ovarian): 8.57 µM
- GI50 (DMS 273 small cell lung): 2370 nM
- TGI (DMS 273 small cell lung): 11.3 µM
- GI50 (A549 NSCLC): 18.2 µM
- TGI (A549 NSCLC): 33 µM
- GI50 (RXF-631 renal): 1430 nM
- TGI (RXF-631 renal): 2730 nM
- GI50 (NCI-H460 lung): 13.3 µM
- TGI (NCI-H460 lung): 26 µM
- GI50 (LOX IMVI melanoma): 1810 nM
- TGI (LOX IMVI melanoma): 3.51 µM
- GI50 (M19-MEL melanoma): 4.26 µM
- TGI (M19-MEL melanoma): 15.3 µM
- GI50 (CAKI-1 renal): 740 nM
- TGI (CAKI-1 renal): 3.93 µM
- GI50 (A498 renal): 2720 nM
- TGI (A498 renal): 7.27 µM
- GI50 (SK-MEL-5 melanoma): 4.57 µM
- TGI (SK-MEL-5 melanoma): 16.8 µM
- GI50 (HOP-92 NSCLC): 1010 nM
- TGI (HOP-92 NSCLC): 4.63 µM
- GI50 (HCT-15 colon): 1900 nM
- TGI (HCT-15 colon): 3.66 µM
- GI50 (CCRF-CEM leukemia): 731 nM
- TGI (CCRF-CEM leukemia): 3.08 µM
- GI50 (NCI-H23 lung): 1330 nM
- TGI (NCI-H23 lung): 2990 nM
- GI50 (OVCAR-5 ovarian): 11.9 µM
- TGI (OVCAR-5 ovarian): 24.2 µM
- GI50 (IGROV1 ovarian): 4.57 µM
- TGI (IGROV1 ovarian): 18.4 µM
- GI50 (SK-MEL-28 melanoma): 3.92 µM
- TGI (SK-MEL-28 melanoma): 11.9 µM
- GI50 (HT29 colon): 5.97 µM
- TGI (HT29 colon): 19.5 µM
- GI50 (SNB-78 CNS): 2070 nM
- TGI (SNB-78 CNS): 7.73 µM
- GI50 (786-0 renal): 2620 nM
- TGI (786-0 renal): 8.01 µM
- GI50 (HL-60(TB) leukemia): 1340 nM
- TGI (HL-60(TB) leukemia): 3.99 µM
- GI50 (U251 CNS): 1890 nM
- TGI (U251 CNS): 3.79 µM
- GI50 (RPMI-8226 leukemia): 1740 nM
- TGI (RPMI-8226 leukemia): 6.34 µM
- GI50 (DLD-1 colon): 3.11 µM
- TGI (DLD-1 colon): 10.7 µM
- GI50 (OVCAR-3 ovarian): 1910 nM
- TGI (OVCAR-3 ovarian): 8.16 µM
- GI50 (DMS 114 small cell lung): 1950 nM
- TGI (DMS 114 small cell lung): 4.05 µM
- GI50 (K-562 leukemia): 1850 nM
- TGI (K-562 leukemia): 6.01 µM
- GI50 (KM12 colon): 4.6 µM
- TGI (KM12 colon): 17.6 µM
- GI50 (SW-620 colon): 1480 nM
- TGI (SW-620 colon): 3.6 µM
- GI50 (OVCAR-8 ovarian): 2250 nM
- TGI (OVCAR-8 ovarian): 7.64 µM
- GI50 (UO-31 renal): 7.32 µM
- TGI (UO-31 renal): 19.9 µM
- GI50 (MOLT-4 leukemia): 2090 nM
- TGI (MOLT-4 leukemia): 5.96 µM
- GI50 (HCT-116 colon): 3.61 µM
- TGI (HCT-116 colon): 11.4 µM
- GI50 (NCI-H226 lung): 10.5 µM
- TGI (NCI-H226 lung): 23 µM
- GI50 (COLO 205 colon): 1880 nM
- TGI (COLO 205 colon): 3.65 µM
- GI50 (MALME-3M melanoma): 1560 nM
- TGI (MALME-3M melanoma): 4.11 µM
- GI50 (UACC-62 melanoma): 1800 nM
- TGI (UACC-62 melanoma): 3.94 µM
- GI50 (SNB-75 CNS): 2090 nM
- TGI (SNB-75 CNS): 6.78 µM
- GI50 (SNB-19 CNS): 2650 nM
- TGI (SNB-19 CNS): 10.6 µM
- GI50 (M14 melanoma): 3.11 µM
- TGI (M14 melanoma): 10.6 µM
- GI50 (SF-295 CNS): 3.12 µM
- TGI (SF-295 CNS): 10.4 µM
- GI50 (RXF 393 renal): 2020 nM
- TGI (RXF 393 renal): 3.82 µM
- GI50 (HCC-2998 colon): 3.76 µM
- TGI (HCC-2998 colon): 14.6 µM
- GI50 (KM20L2 colon): 3.96 µM
- TGI (KM20L2 colon): 11.9 µM
- GI50 (NCI-H522 lung): 476 nM
- TGI (NCI-H522 lung): 1670 nM
- GI50 (LXFL 529 NSCLC): 849 nM
- TGI (LXFL 529 NSCLC): 2220 nM
- GI50 (SF-539 CNS): 1870 nM
- TGI (SF-539 CNS): 4 µM
- GI50 (SK-MEL-2 melanoma): 1710 nM
- TGI (SK-MEL-2 melanoma): 3.81 µM
